Experimental data as given in patent US10736883B2, “Triazole furan compounds as agonists of the APJ receptor” (AMGEN INC., priority 2016, dated 2020).

Target: APJ receptor (Homo sapiens (Human), UniProt P35414)
Experiment: [35S]GTPγS binding assay on membranes from CHO cells stably expressing human APJ receptor
Format: biochemical
Details: membranes of CHO cells stably expressing human APJ receptor, means of several independent experiments, read-out: Activity hAPJ SPA EC50 IP
How it was run: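 EC50 values were obtained by non-linear regression of [35S]GTPγS (0.2 nM) binding after 90 min at RT, with nonspecific binding defined by 100 μM GTPγS. Reactions used human APJ–expressing CHO cell membranes on WGA PS beads in HEPES pH 7.5 buffer with 5 mM MgCl2, 200 mM NaCl, 3 μM GDP and 0.1% BSA.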

Sequence of APJ receptor (P35414 whole entry): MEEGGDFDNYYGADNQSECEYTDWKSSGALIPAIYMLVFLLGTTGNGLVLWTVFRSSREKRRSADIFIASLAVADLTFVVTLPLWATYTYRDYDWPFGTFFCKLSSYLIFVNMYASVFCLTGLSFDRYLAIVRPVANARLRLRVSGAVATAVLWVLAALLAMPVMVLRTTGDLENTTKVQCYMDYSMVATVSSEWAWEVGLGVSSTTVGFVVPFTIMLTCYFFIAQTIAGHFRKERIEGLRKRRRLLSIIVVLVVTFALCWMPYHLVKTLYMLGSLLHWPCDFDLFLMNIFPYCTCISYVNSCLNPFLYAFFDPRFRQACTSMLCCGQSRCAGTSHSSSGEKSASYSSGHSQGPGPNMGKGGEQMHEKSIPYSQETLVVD

| Compound | EC50 |
| --- | --- |
| COc1cccc(OC)c1-n1c(NS(=O)(=O)[C@H]2C[C@@H](O)CN(c3cncc(C#N)c3)C2)nnc1-c1ccc(C)o1 (single isomer, unassigned) [Example 325.0, (3S,5R)-1-(5-Cyano-3-pyridinyl)-N-(4-(2,6-dimethoxyphenyl)-5-(5-methyl-2-furanyl)-4H-1,2,4-triazol-3-yl)-5-hydroxy-3-piperidinesulfonamide or (3R,5S)-1-(5-cyano-3-pyridinyl)-N-(4-(2,6-dimethoxyphenyl)-5-(5-methyl-2-furanyl)-4H-1,2,4-triazol-3-yl)-5-hydroxy-3-piperidinesulfonamide] | 0.23 nM |
| COc1ccnc(N2C[C@H](O)C[C@H](S(=O)(=O)Nc3nnc(-c4ccc(C)o4)n3-c3c(OC)cccc3OC)C2)n1 (single isomer, unassigned) [Example 327.0, (3S,5R)—N-(4-(2,6-Dimethoxyphenyl)-5-(5-methyl-2-furanyl)-4H-1,2,4-triazol-3-yl)-5-hydroxy-1-(4-methoxy-2-pyrimidinyl)-3-piperidinesulfonamide or (3R,5S)—N-(4-(2,6-dimethoxyphenyl)-5-(5-methyl-2-furanyl)-4H-1,2,4-triazol-3-yl)-5-hydroxy-1-(4-methoxy-2-pyrimidinyl)-3-piperidinesulfonamide] | 0.25 nM |
| COc1cccc(OC)c1-n1c(NS(=O)(=O)[C@H]2C[C@@H](O)CN(c3nc(C)cc(C)n3)C2)nnc1-c1ccc(C)o1 (single isomer, unassigned) [Example 336.0, (3S,5R)—N-(4-(2,6-Dimethoxyphenyl)-5-(5-methylfuran-2-yl)-4H-1,2,4-triazol-3-yl)-1-(4,6-dimethylpyrimidin-2-yl)-5-hydroxypiperidine-3-sulfonamide or (3R,5S)—N-(4-(2,6-dimethoxyphenyl)-5-(5-methylfuran-2-yl)-4H-1,2,4-triazol-3-yl)-1-(4,6-dimethylpyrimidin-2-yl)-5-hydroxypiperidine-3-sulfonamide] | 0.55 nM |
| COc1cccc(OC)c1-n1c(NS(=O)(=O)[C@H]2C[C@@H](O)CN(C(=O)N(C)C)C2)nnc1-c1ccc(C)o1 (single isomer, unassigned) [Example 337.0, (3S,5R)-3-(N-(4-(2,6-Dimethoxyphenyl)-5-(5-methylfuran-2-yl)-4H-1,2,4-triazol-3-yl)sulfamoyl)-5-hydroxy-N,N-dimethylpiperidine-1-carboxamide or (3R,5S)-3-(N-(4-(2,6-dimethoxyphenyl)-5-(5-methylfuran-2-yl)-4H-1,2,4-triazol-3-yl)sulfamoyl)-5-hydroxy-N,N-dimethylpiperidine-1-carboxamide] | 1.3 nM |
| COc1cccc(OC)c1-n1c(NS(=O)(=O)[C@H]2CCCN(S(=O)(=O)C(C)C)C2)nnc1-c1ccco1 (single isomer, unassigned) [Example 339.0, (S)—N-(4-(2,6-Dimethoxyphenyl)-5-(furan-2-yl)-4H-1,2,4-triazol-3-yl)-1-(isopropylsulfonyl)piperidine-3-sulfonamide or (R)—N-(4-(2,6-dimethoxyphenyl)-5-(furan-2-yl)-4H-1,2,4-triazol-3-yl)-1-(isopropylsulfonyl)piperidine-3-sulfonamide] | 62 nM |
| COc1cccc(OC)c1-n1c(NS(=O)(=O)[C@@H]2CCCN(C(=O)N(C)C)C2)nnc1-c1ccco1 (single isomer, unassigned) [Example 340.0, (S)-3-(N-(4-(2,6-Dimethoxyphenyl)-5-(furan-2-yl)-4H-1,2,4-triazol-3-yl)sulfamoyl)-N,N-dimethylpiperidine-1-carboxamide or (R)-3-(N-(4-(2,6-dimethoxyphenyl)-5-(furan-2-yl)-4H-1,2,4-triazol-3-yl)sulfamoyl)-N,N-dimethylpiperidine-1-carboxamide] | 75 nM |
| COc1cccc(OC)c1-n1c(NS(=O)(=O)[C@@H](C)CN2C(=O)CCC[C@]2(C)C#N)nnc1-c1ccco1 (single isomer, unassigned) [Example 341.0] | 81 nM |
| COc1cccc(OC)c1-n1c(NS(=O)(=O)[C@H](C)CN2C(=O)CCC[C@]2(C)C#N)nnc1-c1ccco1 (single isomer, unassigned) [Example 342.0] | 121 nM |
| COc1cccc(OC)c1-n1c(NS(=O)(=O)[C@H]2CON(C)[C@@H]2c2ncc(F)cn2)nnc1-c1ccco1 (single isomer, unassigned) [Example 343.0, (3R,4R)—N-(4-(2,6-Dimethoxyphenyl)-5-(furan-2-yl)-4H-1,2,4-triazol-3-yl)-3-(5-fluoropyrimidin-2-yl)-2-methylisoxazolidine-4-sulfonamide or (3S,4S)—N-(4-(2,6-dimethoxyphenyl)-5-(furan-2-yl)-4H-1,2,4-triazol-3-yl)-3-(5-fluoropyrimidin-2-yl)-2-methylisoxazolidine-4-sulfonamide] | 200 nM |
| COc1cccc(OC)c1-n1c(NS(=O)(=O)[C@@H]2COCC[C@@H]2O)nnc1-c1ccc(C)o1 (single isomer, unassigned) [Example 402.0] | 65 nM |
| COc1cccc(OC)c1-n1c(NS(=O)(=O)[C@@H]2COCC[C@@H]2O)nnc1-c1ccc(C)o1 (single isomer, unassigned) [Example 403.0] | 57 nM |
| COc1cccc(OC)c1-n1c(NS(=O)(=O)[C@@H]2COCC[C@@H]2O)nnc1-c1ccc(C)o1 (single isomer, unassigned) [Example 404.0] | 36 nM |
| COc1cccc(OC)c1-n1c(NS(=O)(=O)[C@@H]2COCC[C@@H]2O)nnc1-c1ccc(C)o1 (single isomer, unassigned) [Example 405.0] | 64 nM |
| COc1cccc(OC)c1-n1c(NS(=O)(=O)[C@@H]2CC[C@@H](O)[C@H](O)C2)nnc1-c1ccc(C)o1 (single isomer, unassigned) [Example 406.0] | 67 nM |
| COc1cccc(OC)c1-n1c(NS(=O)(=O)[C@@H]2CC[C@@H](O)[C@H](O)C2)nnc1-c1ccc(C)o1 (single isomer, unassigned) [Example 407.0] | 180 nM |
| COc1cccc(OC)c1-n1c(NS(=O)(=O)c2cccc([C@H](C)O)c2)nnc1-c1ccc(C)o1 (single isomer, unassigned) [Example 410.0, (R)-N-(4-(2,6-dimethoxyphenyl)-5-(5-methylfuran-2-yl)-4H-1,2,4-triazol-3-yl)-3-(1-hydroxyethyl)benzenesulfonamide or (S)-N-(4-(2,6-dimethoxyphenyl)-5-(5-methylfuran-2-yl)-4H-1,2,4-triazol-3-yl)-3-(1-hydroxyethyl)benzenesulfonamide] | 11 nM |
| COc1cccc(OC)c1-n1c(NS(=O)(=O)c2cccc([C@@H](C)O)c2)nnc1-c1ccc(C)o1 (single isomer, unassigned) [Example 411.0, (R)-N-(4-(2,6-dimethoxyphenyl)-5-(5-methylfuran-2-yl)-4H-1,2,4-triazol-3-yl)-3-(1-hydroxyethyl)benzenesulfonamide or (S)-N-(4-(2,6-dimethoxyphenyl)-5-(5-methylfuran-2-yl)-4H-1,2,4-triazol-3-yl)-3-(1-hydroxyethyl)benzenesulfonamide] | 32 nM |
| COc1cccc(OC)c1-n1c(NS(=O)(=O)[C@H](C)[C@H](O)c2cccc(Cl)n2)nnc1-c1ccc(C)o1 (stereo in doubt) [Example 85.0] | 0.17 nM |
| COc1cccc(OC)c1-n1c(NS(=O)(=O)[C@H](C)[C@H](O)c2cccc(C)n2)nnc1-c1ccc(C)o1 (stereo in doubt) [Example 87.0] | 0.41 nM |
| COc1cccc(OC)c1-n1c(NS(=O)(=O)[C@H](C)[C@H](O)c2ccccn2)nnc1-c1ccc(C)o1 (stereo in doubt) [Example 90.0, (1R,2R)-N-(4-(2,6-dimethoxyphenyl)-5-(5-methylfuran-2-yl)-4H-1,2,4-triazol-3-yl)-1-hydroxy-1-(pyridin-2-yl)propane-2-sulfonamide compound and (1S,2S)-N-(4-(2,6-dimethoxyphenyl)-5-(5-methylfuran-2-yl)-4H-1,2,4-triazol-3-yl)-1-hydroxy-1-(pyridin-2-yl)propane-2-sulfonamide] | 3.9 nM |
| COc1cccc(OC)c1-n1c(NS(=O)(=O)CCN2Cc3ccccc3C2=O)nnc1-c1ccco1 [Example 2.0, N-(4-(2,6-Dimethoxyphenyl)-5-(2-furanyl)-4H-1,2,4-triazol-3-yl)-2-(1-oxo-1,3-dihydro-2H-isoindol-2-yl)ethanesulfonamide] | 13000 nM |
| COc1ncnc(OC)c1-n1c(NS(=O)(=O)[C@@H](C)[C@H](OC)c2ncc(C)cn2)nnc1-c1ccc(C)o1 [Example 3.0, (1R,2S)—N-(4-(4,6-dimethoxypyrimidin-5-yl)-5-(5-methylfuran-2-yl)-4H-1,2,4-triazol-3-yl)-1-methoxy-1-(5-methylpyrimidin-2-yl)propane-2-sulfonamide] | 0.31 nM |
| COc1cccc(OC)c1-n1c(NS(=O)(=O)CCc2ccc(C#N)cn2)nnc1-c1ccc(C)o1 [Example 19.0, 2-(5-cyano-2-pyridinyl)-N-(4-(2,6-dimethoxyphenyl)-5-(5-methyl-2-furanyl)-4H-1,2,4-triazol-3-yl)ethanesulfonamide] | 0.29 nM |
| COc1cccc(OC)c1-n1c(NS(=O)(=O)CCc2ncc(Cl)cc2N2CCC2=O)nnc1-c1ccco1 [Example 27.0, 2-(5-chloro-3-(2-oxo-1-azetidinyl)-2-pyridinyl)-N-(4-(2,6-dimethoxyphenyl)-5-(2-furanyl)-4H-1,2,4-triazol-3-yl)ethanesulfonamide] | 0.46 nM |
| COc1cccc(OC)c1-n1c(NS(=O)(=O)CCc2ccc(C#N)cn2)nnc1-c1ccco1 [Example 35.0, 2-(5-cyano-2-pyridinyl)-N-(4-(2,6-dimethoxyphenyl)-5-(2-furanyl)-4H-1,2,4-triazol-3-yl)ethanesulfonamide] | 3.5 nM |
| COc1cccc(OC)c1-n1c(NS(=O)(=O)CCc2ncc(C)cn2)nnc1-c1ccco1 [Example 39.0, N-(4-(2,6-dimethoxyphenyl)-5-(2-furanyl)-4H-1,2,4-triazol-3-yl)-2-(5-methyl-2-pyrimidinyl)ethanesulfonamide] | 6.6 nM |
| COc1cccc(OC)c1-n1c(NS(=O)(=O)[C@@H](C)[C@H](O)c2ccc(C#N)cc2F)nnc1-c1ccc(C)o1 [Example 75.0] | 0.55 nM |
